From patent publication US6245758A, “Methods of use for peroxynitrite decomposition catalysts, pharmaceutical compositions therefor” (priority 1996, dated 2001) come the findings set out here.

Counter-ions that a name gives are not always drawn.

Assay [1] deals with carrageenan-induced paw edema. Nature of the assay: Carrageenan-induced paw edema. The format is in vivo, rat. From the text:
Carrageenan-induced paw edema. The effects of peroxynitrite catalysts in vivo were initially tested on the carrageenan-induced paw edema. The choice of using this in vivo model of inflammation was based on the knowledge that 1) the inflammatory response is blocked by NOS inhibitors and 2) by superoxide dismutase (SOD). This indicates the participation of both NO and of O2-. Male Sprague Dawley rats were purchased from Harlan Sprague-Dawley (Indianapolis, Ind.). Male Sprague Dawley rats (175-200 g) received a subplantar injection in the right hind paw of carrageenan (0.1 ml of a 1% suspension in 0.85% saline). Paw volume was measured by a plethysmometer immediately before the injection of carrageenan and then at hourly intervals from 1 to 6 h. Edema was expressed as the increase in paw volume (in ml) measured after carrageenan injection compared to the pre-injection value for individual animals.
(In general: In the carrageenan paw model, swelling and tenderness develop within hours.)

The nature of assay [2]: Stopped-flow kinetic analysis of catalytic decomposition of peroxynitrite by metal complexes. The settings on record: pH = 7.4, 22° C. As for the experimental part: To screen metal complexes for peroxynitrite decomposition catalytic activity of the present invention, peroxynitrite is prepared and isolated as its sodium salt by the reaction of acidic hydrogen peroxide with sodium nitrite followed by rapid quenching with NaOH as set out by Halfpenny and Robinson, in J. Chem. So., 1952, 928-938. Peroxynitrite has an absorbance maximum at 302 nm with an extinction coefficient of 1670 M^-1 cm^-1. Therefore, it is possible to directly observe the decomposition of peroxynitrite by stop-flow spectrophotometric analysis by monitoring the decomposition of the absorbance at 302 nm. That is, such observation of the decomposition of peroxynitrite at a rate accelerated over the natural decomposition rate with the addition of the metal complex identifies a compound of the present invention.
Kinetic measurements were made on an OLIS Rapid Scanning Stopped-Flow Spectrometer (On-Line Instrument Systems Inc., Bogart, Ga.)) using the OLISRSM-1000 Operating system for data acquisition and manipulation.
Thus, in a typical experiment the natural background decomposition rate of sodium peroxynitrite was determined as follows. A 24 mM stock solution of sodium peroxynitrite in 50 mM NaOH is load into the small volume syringe and 100 mM potassium phosphate pH=7.4 is charged into the large volume syringe of the stopped-flow spectrophotometer. All stopped -flow measurements were made at 22 ° C. Injection of the solutions into the sample compartment results in ~25 fold dilution of the stock sodium peroxynitrite. […] To test for catalytic peroxynitrite decomposition activity, the metal complex was dissolved in 100 mM potassium phosphate buffer pH=7.4 and loaded into the large syringe and the decomposition of peroxynitrite was monitored as described above. The catalytic rate constant (kcat M-1 sec^-1) for the complexes tested was determined by varying the complex concentration and plotting kobs vs [complex] Table 1. The kobs were obtained from averages of three stopped flow analysis at each catalyst concentration.

The mark [3] stands for this setting: 30 mg/kg i.v., 1 h post carrageenan.
[4] abbreviates: 30 mg/kg i.v., 2 h post carrageenan.
Where [5] appears, read: 30 mg/kg i.v., 3 h post carrageenan.
Setting [6] is: 30 mg/kg i.v., 4 h post carrageenan.
Where [7] appears, read: 30 mg/kg i.v., 5 h post carrageenan.
Setting [8] is: 30 mg/kg i.v., 6 h post carrageenan.

In the case of `Cc1c(-c2c3nc(c(-c4c(C)c(S(=O)(=O)O)c(C)c(S(=O)(=O)O)c4C)c4ccc([nH]4)c(-c4c(C)c(S(=O)(=O)O)c(C)c(S(=O)(=O)O)c4C)c4nc(c(-c5c(C)c(S(=O)(=O)O)c(C)c(S(=O)(=O)O)c5C)c5ccc2[nH]5)C=C4)C=C3)c(C)c(S(=O)(=O)O)c(C)c1S(=O)(=O)O` [Example H2TMPS, 5,10,15,20-tetrakis(3,5-disulfonatedmesityl)porphyrin octasodium salt], the “inhibition of edema formation” value in assay [1] (30 mg/kg i.v.) is “failed to inhibit edema formation”. Further, the “% Inhibition of Paw Edema” value in assay [1] (setting [3]), in assay [1] (setting [4]), in assay [1] (setting [5]), in assay [1] (setting [6]), in assay [1] (setting [7]) and in assay [1] (setting [8]) was 0% in each case. In addition, the “kcat, catalytic rate constant for the decomposition of sodium peroxynitrite” value (“kcat, catalytic rate constant” for short) in assay [2] is given as “Inactive”.
As for `COc1cccc(C=NCCN=Cc2cccc(OC)c2[O-])c1[O-].[Cl-].[Fe+3]` [Fe(III)(3,3'MeO2 Salen)], the “kcat, catalytic rate constant” value in assay [2] stood at 50000 M⁻¹ s⁻¹.
Same read-out and setting: for `O=C([O-])CC(O)(CC(=O)[O-])C(=O)[O-].[Fe+3]` [Fe(III)Citrate, Iron(III)citrate, reference compound] the value was 15000 M⁻¹ s⁻¹.
Still for that read-out and setting: for `O=C([O-])CN(CCN(CC(=O)[O-])CC(=O)[O-])CC(=O)[O-].[Fe+3]` [Fe(III)EDTA, iron(III)EDTA, reference compound] the value was 20000 M⁻¹ s⁻¹.
In the case of `[Cl][Fe]([Cl])[Cl]` [FeCl3, reference compound], the “inhibition of edema formation” value in assay [1] (5 mg/kg, n=6) is “failed to inhibit edema formation”.
With `CC(=O)[O-].Cc1c(-c2c3nc(c(-c4c(C)c(S(=O)(=O)[O-])c(C)c(S(=O)(=O)[O-])c4C)c4ccc([n-]4)c(-c4c(C)c(S(=O)(=O)[O-])c(C)c(S(=O)(=O)[O-])c4C)c4nc(c(-c5c(C)c(S(=O)(=O)[O-])c(C)c(S(=O)(=O)[O-])c5C)c5ccc2[n-]5)C=C4)C=C3)c(C)c(S(=O)(=O)[O-])c(C)c1S(=O)(=O)[O-].[Mn+3].[Na+].[Na+].[Na+].[Na+].[Na+].[Na+].[Na+].[Na+]` [Mn(III)TMPS, Acetato 5,10,15,20tetrakis(3,5,disulfonatomesityl)porphyrin Manganese(III) octasodium salt], the “% Inhibition of Paw Edema” value in assay [1] (setting [3]), in assay [1] (setting [4]), in assay [1] (setting [5]), in assay [1] (setting [6]), in assay [1] (setting [7]) and in assay [1] (setting [8]) was 0% throughout. The “kcat, catalytic rate constant” value in assay [2] was found to be 29000 M⁻¹ s⁻¹.
As to `CC1=NCCCNCCCN=C(C)c2cccc1n2.[Cl-].[Cl-].[Ni+2]` [Ni(CR)Cl2, reference compound], in assay [2], the “kcat, catalytic rate constant” value is recorded as “Inactive”.
In the case of `Cc1c(-c2c3nc(c(-c4c(C)c(S(=O)(=O)[O-])c(C)c(S(=O)(=O)[O-])c4C)c4ccc([n-]4)c(-c4c(C)c(S(=O)(=O)[O-])c(C)c(S(=O)(=O)[O-])c4C)c4nc(c(-c5c(C)c(S(=O)(=O)[O-])c(C)c(S(=O)(=O)[O-])c5C)c5ccc2[n-]5)C=C4)C=C3)c(C)c(S(=O)(=O)[O-])c(C)c1S(=O)(=O)[O-].[Na+].[Na+].[Na+].[Na+].[Na+].[Na+].[Na+].[Na+].[Ni+2]` [Ni(II)TMPS, Acetato-5,10,15,20-tetrakis(3,5-disulfonatomesityl)porphyrin Nickel (II) octasodium salt], the “kcat, catalytic rate constant” value in assay [2] was 87200 M⁻¹ s⁻¹.
For `CC1=CC(C)=Nc2ccccc2[N-]C(C)=CC(C)=Nc2ccccc2[N-]1.[Ni+2]` [Ni(II)[14]12eneN4], in assay [2], the “kcat, catalytic rate constant” value is 17000 M⁻¹ s⁻¹.
As to `Cc1c(-c2c3nc(c(-c4c(C)c(S(=O)(=O)[O-])c(C)c(S(=O)(=O)[O-])c4C)c4ccc([n-]4)c(-c4c(C)c(S(=O)(=O)[O-])c(C)c(S(=O)(=O)[O-])c4C)c4nc(c(-c5c(C)c(S(=O)(=O)[O-])c(C)c(S(=O)(=O)[O-])c5C)c5ccc2[n-]5)C=C4)C=C3)c(C)c(S(=O)(=O)[O-])c(C)c1S(=O)(=O)[O-].[Na+].[Na+].[Na+].[Na+].[Na+].[Na+].[Na+].[Na+].[Zn+2]` [ZnTMPS, reference compound], the “% Inhibition of Paw Edema” value in assay [1] (setting [3]), in assay [1] (setting [4]), in assay [1] (setting [5]), in assay [1] (setting [6]), in assay [1] (setting [7]) and in assay [1] (setting [8]) was 0% in each case.
As to MnTPPS [reference compound], the “inhibition of edema formation” value in assay [1] (30 mg/kg i.v.) is “failed to inhibit edema formation”.
